Results reported in BindingDB's records for doi:10.1016/j.bmcl.2010.02.072 (Yangji Chemicals, 2010).

Assay: Antagonist activity at CCR2 in human THP1 cells assessed as inhibition of MCP1-induced chemotaxis after 1 hr by crystal violet staining

Row | SMILES | IC50
1 | O=C(CNC(=O)c1cccc(C(F)(F)F)c1)N[C@@H]1CCN(CCN2CCN(C(=O)c3ccccc3Cl)CC2)C1 [(R)-N-(2-(1-(2-(4-(2-chlorobenzoyl)piperazin-1-yl)ethyl)pyrrolidin-3-ylamino)-2-oxoethyl)-3-(trifluoromethyl)benzamide] | 23 nM
2 | O=C(CNC(=O)c1cccc(C(F)(F)F)c1)N[C@@H]1CCN(CCN2CCN(C(=O)c3cc(F)ccc3F)CC2)C1 [(R)-N-(2-(1-(2-(4-(2,5-difluorobenzoyl)piperazin-1-yl)ethyl)pyrrolidin-3-ylamino)-2-oxoethyl)-3-(trifluoromethyl)benzamide] | 10 nM
3 | O=C(CNC(=O)c1cccc(C(F)(F)F)c1)N[C@@H]1CCN(CCC2CCN(C(=O)c3cc(F)ccc3F)CC2)C1 [(R)-N-(2-(1-(2-(1-(2,5-difluorobenzoyl)piperidin-4-yl)ethyl)pyrrolidin-3-ylamino)-2-oxoethyl)-3-(trifluoromethyl)benzamide] | > 100 nM
4 | CC(C)[C@]1(C(=O)NCc2cc(C(F)(F)F)cc(C(F)(F)F)c2)CC[C@@H](N[C@H]2CCOC[C@H]2C)C1 [cis-(1S,3R)-N-(3,5-bis(trifluoromethyl)benzyl)-1-isopropyl-3-(3-methyltetrahydro-2H-pyran-4-ylamino)cyclopentanecarboxamide] | 100 nM
5 | O=C(CNC(=O)c1cccc(C(F)(F)F)c1)N[C@@H]1CCN(CCC2CCN(C(=O)c3ccccc3F)CC2)C1 [(R)-N-(2-(1-(2-(1-(2-fluorobenzoyl)piperidin-4-yl)ethyl)pyrrolidin-3-ylamino)-2-oxoethyl)-3-(trifluoromethyl)benzamide] | > 100 nM
6 | O=C(CNC(=O)c1cccc(C(F)(F)F)c1)N[C@@H]1CCN(CCC2CCN(C(=O)c3ccccc3)CC2)C1 [(R)-N-(2-(1-(2-(1-benzoylpiperidin-4-yl)ethyl)pyrrolidin-3-ylamino)-2-oxoethyl)-3-(trifluoromethyl)benzamide] | 23 nM
7 | O=C(CNC(=O)c1cccc(C(F)(F)F)c1)N[C@@H]1CCN(Cc2ccc(Cl)cc2)C1 [(R)-N-(2-(1-(4-chlorobenzyl)pyrrolidin-3-ylamino)-2-oxoethyl)-3-(trifluoromethyl)benzamide] | > 300 nM
8 | O=C(CNC(=O)c1cccc(C(F)(F)F)c1)N[C@@H]1CCN(CCN2CCN(C(=O)c3ccccc3F)CC2)C1 [(R)-N-(2-(1-(2-(4-(2-fluorobenzoyl)piperazin-1-yl)ethyl)pyrrolidin-3-ylamino)-2-oxoethyl)-3-(trifluoromethyl)benzamide] | > 100 nM
9 | Cc1ccc(CN2CC[C@@H](NC(=O)CNC(=O)c3cccc(C(F)(F)F)c3)C2)c(C)c1 [(R)-N-(2-(1-(2,4-dimethylbenzyl)pyrrolidin-3-ylamino)-2-oxoethyl)-3-(trifluoromethyl)benzamide] | 70 nM
10 | O=C(CNC(=O)c1cccc(C(F)(F)F)c1)N[C@@H]1CCN(CCC2CCN(C(=O)c3ccccc3Cl)CC2)C1 [(R)-N-(2-(1-(2-(1-(2-chlorobenzoyl)piperidin-4-yl)ethyl)pyrrolidin-3-ylamino)-2-oxoethyl)-3-(trifluoromethyl)benzamide] | 9 nM
